From ChEMBL document CHEMBL4177650, “Synthesis and biological evolution of hydrazones derived from 4-(trifluoromethyl)benzohydrazide” (Bioorg Med Chem Lett, 2017)
≈ marks a conversion by molar mass, not a printed value. Calls of active or inactive are those of the source. No cut-off for these calls is given here.

What was measured:
Lichtheimia corymbifera = assay: Antifungal activity against Absidia corymbifera 272 after 24 to 48 hrs by microdilution broth method; format: functional, organism-based
[1] = tested on: Mycobacterium tuberculosis; assay: Antimycobacterial activity against Mycobacterium tuberculosis H37Rv 331/88 after 21 days by micromethod; format: functional; conditions: H37Rv 331/88, 504 h
Mycobacterium kansasii [2] = assay: Antimycobacterial activity against Mycobacterium kansasii 6509/80 after 21 days by micromethod; format: functional; conditions: 6509/80, 504 h
Klebsiella pneumoniae [3] = assay: Antibacterial activity against extended spectrum beta-lactamase-positive Klebsiella pneumoniae J 14368/08 after 24 to 48 hrs by microdilution broth method; format: functional, organism-based
Mycobacterium kansasii [4] = assay: Antimycobacterial activity against Mycobacterium kansasii 6509/96 after 14 days by micromethod; format: functional; conditions: 6509/96, 336 h
Mycobacterium kansasii [5] = assay: Antimycobacterial activity against Mycobacterium kansasii 6509/96 after 7 days by micromethod; format: functional; conditions: 6509/96, 168 h
Mycobacterium avium [6] = assay: Antimycobacterial activity against Mycobacterium avium 330/88 after 21 days by micromethod; format: functional; conditions: 330/88, 504 h
Mycobacterium kansasii [7] = assay: Antimycobacterial activity against Mycobacterium kansasii 6509/96 after 21 days by micromethod; format: functional; conditions: 6509/96, 504 h
Mycobacterium avium [8] = assay: Antimycobacterial activity against Mycobacterium avium 330/88 after 14 days by micromethod; format: functional; conditions: 330/88, 336 h
Klebsiella pneumoniae [9] = assay: Antibacterial activity against gram-negative Klebsiella pneumoniae D 11750/08 after 24 to 48 hrs by microdilution broth method; format: functional, organism-based
Candida albicans = assay: Antifungal activity against Candida albicans ATCC 44859 after 24 to 48 hrs by microdilution broth method; format: functional, organism-based
Aspergillus fumigatus = assay: Antifungal activity against Aspergillus fumigatus 231 after 24 to 48 hrs by microdilution broth method; format: functional, organism-based
Mycobacterium kansasii [10] = assay: Antimycobacterial activity against Mycobacterium kansasii 6509/80 after 14 days by micromethod; format: functional; conditions: 6509/80, 336 h
[11] = tested on: Mycobacterium tuberculosis; assay: Antimycobacterial activity against Mycobacterium tuberculosis H37Rv 331/88 after 14 days by micromethod; format: functional; conditions: H37Rv 331/88, 336 h
Trichosporon asahii = assay: Antifungal activity against Trichosporon asahii 1188 after 24 to 48 hrs by microdilution broth method; format: functional, organism-based
Mycobacterium kansasii [12] = assay: Antimycobacterial activity against Mycobacterium kansasii 6509/80 after 7 days by micromethod; format: functional; conditions: 6509/80, 168 h
Pseudomonas aeruginosa = assay: Antibacterial activity against gram-negative Pseudomonas aeruginosa CCM 1961 after 48 hrs by microdilution broth method; format: functional, organism-based
Staphylococcus aureus [13] = assay: Antibacterial activity against gram-positive Staphylococcus aureus CCM 4516/08 after 24 hrs by microdilution broth method; format: functional; conditions: CCM 4516/08, 24 h
Pichia kudriavzevii [14] = assay: Antifungal activity against Candida krusei E28 after 24 hrs by microdilution broth method; format: functional; conditions: E28, 24 h
[15] = tested on: Trichophyton mentagrophytes; assay: Antifungal activity against Trichophyton mentagrophytes 445 after 72 hrs by microdilution broth method; format: functional; conditions: Trichophyton mentagrophytes, 445, 72 h
Nakaseomyces glabratus [16] = assay: Antifungal activity against Candida glabrata 20/I after 24 hrs by microdilution broth method; format: functional
Staphylococcus aureus [17] = assay: Antibacterial activity against gram-positive methicillin-resistant Staphylococcus aureus H 5996/08 after 24 hrs by microdilution broth method; format: functional; conditions: H 5996/08, 24 h
Pichia kudriavzevii [18] = assay: Antifungal activity against Candida krusei E28 after 48 hrs by microdilution broth method; format: functional; conditions: E28, 48 h
Enterococcus faecalis [19] = assay: Antibacterial activity against gram-positive Enterococcus faecalis J 14365/08 after 24 hrs by microdilution broth method; format: functional; conditions: J 14365/08, 24 h
[20] = tested on: Staphylococcus epidermidis; assay: Antibacterial activity against gram-positive Staphylococcus epidermidis H 6966/08 after 24 hrs by microdilution broth method; format: functional; conditions: H 6966/08, 24 h
Candida tropicalis [21] = assay: Antifungal activity against Candida tropicalis 156 after 48 hrs by microdilution broth method; format: functional; conditions: Candida tropicalis, 156, 48 h
Staphylococcus aureus [22] = assay: Antibacterial activity against gram-positive methicillin-resistant Staphylococcus aureus H 5996/08 after 48 hrs by microdilution broth method; format: functional; conditions: H 5996/08, 48 h
Candida tropicalis [23] = assay: Antifungal activity against Candida tropicalis 156 after 24 hrs by microdilution broth method; format: functional; conditions: Candida tropicalis, 156, 24 h
Staphylococcus aureus [24] = assay: Antibacterial activity against gram-positive Staphylococcus aureus CCM 4516/08 after 48 hrs by microdilution broth method; format: functional; conditions: CCM 4516/08, 48 h
[25] = tested on: Staphylococcus epidermidis; assay: Antibacterial activity against gram-positive Staphylococcus epidermidis H 6966/08 after 48 hrs by microdilution broth method; format: functional; conditions: H 6966/08, 48 h
[26] = tested on: Trichophyton mentagrophytes; assay: Antifungal activity against Trichophyton mentagrophytes 445 after 120 hrs by microdilution broth method; format: functional; conditions: Trichophyton mentagrophytes, 445, 120 h
Escherichia coli [27] = assay: Antibacterial activity against gram-negative Escherichia coli CCM 4517 after 48 hrs by microdilution broth method; format: functional; conditions: CCM 4517, 48 h
Enterococcus faecalis [28] = assay: Antibacterial activity against gram-positive Enterococcus faecalis J 14365/08 after 48 hrs by microdilution broth method; format: functional; conditions: J 14365/08, 48 h
Nakaseomyces glabratus [29] = assay: Antifungal activity against Candida glabrata 20/I after 48 hrs by microdilution broth method; format: functional
Escherichia coli [30] = assay: Antibacterial activity against gram-negative Escherichia coli CCM 4517 after 24 hrs by microdilution broth method; format: functional; conditions: CCM 4517, 24 h

| SMILES | Activity (Lichtheimia corymbifera) | MIC [1] [µM] | MIC (Mycobacterium kansasii [2]) [µM] | Activity (Klebsiella pneumoniae [3]) | MIC (Mycobacterium kansasii [4]) [µM] | MIC (Mycobacterium kansasii [5]) [µM] | MIC (Mycobacterium avium [6]) [µM] | MIC (Mycobacterium kansasii [7]) [µM] | MIC (Mycobacterium avium [8]) [µM] | Activity (Klebsiella pneumoniae [9]) | Activity (Candida albicans) | Activity (Aspergillus fumigatus) | MIC (Mycobacterium kansasii [10]) [µM] | MIC [11] [µM] | Activity (Trichosporon asahii) | MIC (Mycobacterium kansasii [12]) [µM] | Activity (Pseudomonas aeruginosa) | MIC (Staphylococcus aureus [13]) [µM] | MIC (Pichia kudriavzevii [14]) [µM] | MIC [15] [µM] | further results |
| --- | --- | --- | --- | --- | --- | --- | --- | --- | --- | --- | --- | --- | --- | --- | --- | --- | --- | --- | --- | --- | --- |
| O=C(N/N=C/c1cccc(Cl)c1)c1ccc(C(F)(F)F)cc1 | inactive | > 125 | > 125 | inactive | > 125 | > 125 | > 125 | > 125 | > 125 | inactive | inactive | inactive | > 125 | > 125 | inactive | 125 (≈ 40.8 µg/mL) | inactive | – | – | – | – |
| NNC(=O)c1ccc(C(F)(F)F)cc1 | – | 500 (≈ 102 µg/mL) | > 250 | – | > 250 | > 250 | > 500 | > 250 | > 500 | – | – | – | > 250 | 250 (≈ 51 µg/mL) | – | > 250 | – | > 500 | > 500 | > 500 | MIC (Nakaseomyces glabratus [16]): > 500 µM; MIC (Staphylococcus aureus [17]): > 500 µM; MIC (Pichia kudriavzevii [18]): > 500 µM; MIC (Enterococcus faecalis [19]): > 500 µM; MIC [20]: > 500 µM; MIC (Candida tropicalis [21]): > 500 µM; MIC (Staphylococcus aureus [22]): > 500 µM; MIC (Candida tropicalis [23]): > 500 µM; MIC (Staphylococcus aureus [24]): > 500 µM; MIC [25]: > 500 µM; MIC [26]: > 500 µM; MIC (Escherichia coli [27]): > 500 µM; MIC (Enterococcus faecalis [28]): > 500 µM; MIC (Nakaseomyces glabratus [29]): > 500 µM; MIC (Escherichia coli [30]): > 500 µM |
| CC(C)=NNC(=O)c1ccc(C(F)(F)F)cc1 | inactive | > 125 | > 125 | inactive | > 125 | > 125 | > 125 | > 125 | > 125 | inactive | inactive | inactive | > 125 | > 125 | inactive | 125 (≈ 30.5 µg/mL) | inactive | > 500 | > 500 | > 500 | MIC (Nakaseomyces glabratus [16]): > 500 µM; MIC (Staphylococcus aureus [17]): > 500 µM; MIC (Pichia kudriavzevii [18]): > 500 µM; MIC (Enterococcus faecalis [19]): 250 µM (≈ 61.1 µg/mL); MIC [20]: 500 µM (≈ 122 µg/mL); MIC (Candida tropicalis [21]): > 500 µM; MIC (Staphylococcus aureus [22]): > 500 µM; MIC (Candida tropicalis [23]): > 500 µM; MIC (Staphylococcus aureus [24]): > 500 µM; MIC [25]: > 500 µM; MIC [26]: > 500 µM; MIC (Escherichia coli [27]): > 500 µM; MIC (Enterococcus faecalis [28]): 500 µM (≈ 122 µg/mL); MIC (Nakaseomyces glabratus [29]): > 500 µM; MIC (Escherichia coli [30]): > 500 µM |
| O=C(NN=C1CCCCC1)c1ccc(C(F)(F)F)cc1 | – | 500 (≈ 142 µg/mL) | > 1000 | – | 1000 (≈ 284 µg/mL) | 500 (≈ 142 µg/mL) | > 125 | 1000 (≈ 284 µg/mL) | > 125 | – | – | – | > 1000 | 250 (≈ 71.1 µg/mL) | – | 500 (≈ 142 µg/mL) | – | – | – | – | – |
| O=C(N/N=C/c1cccc(O)c1)c1ccc(C(F)(F)F)cc1 | inactive | 250 (≈ 77.1 µg/mL) | 250 (≈ 77.1 µg/mL) | inactive | 500 (≈ 154 µg/mL) | 250 (≈ 77.1 µg/mL) | 250 (≈ 77.1 µg/mL) | 500 (≈ 154 µg/mL) | 250 (≈ 77.1 µg/mL) | inactive | inactive | inactive | 125 (≈ 38.5 µg/mL) | 250 (≈ 77.1 µg/mL) | inactive | 62.5 (≈ 19.3 µg/mL) | inactive | – | – | – | – |
| O=C(N/N=C/c1ccc([N+](=O)[O-])cc1)c1ccc(C(F)(F)F)cc1 | inactive | > 250 | 62.5 (≈ 21.1 µg/mL) | inactive | > 250 | 250 (≈ 84.3 µg/mL) | > 250 | > 250 | > 250 | inactive | inactive | inactive | 62.5 (≈ 21.1 µg/mL) | 125 (≈ 42.2 µg/mL) | inactive | 32 (≈ 10.8 µg/mL) | inactive | – | – | – | – |
